According to US20250325677A1, “STAT6 DEGRADERS” (Gilead Sciences, Inc., priority 2024, published 2025):
Where two headings read alike, the source gives them in different places.

Legend:
[1] = test system: eotaxin-3 release; assay: Human whole blood eotaxin-3 assay (IL-4 stimulated); format: cell-based
Summary of the method: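 Human whole blood was preincubated with compound for 120 min at 37 °C, then stimulated with recombinant human IL-4 (E. coli) at 0.4 nM final for 48 h. Inhibition of eotaxin-3 release gave EC50 values.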

[2] = biological target: STAT6 (Homo sapiens (Human), UniProt P42226); assay: STAT6 degrader assay (HiBiT, HeLa LgBiT clone 4.14); format: cell-based
Summary of the method: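 DC50 (nM) comes from luminescence of non-degraded STAT6 read 0.5 h after Nano-GLO addition, following 4-24 h compound exposure at 37° C. Cells were HeLa clone 4.14 expressing LgBiT with a CRISPR HiBiT tag on endogenous STAT6; 50 μM terfenadine set full degradation.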

[3] = human whole blood, IL-4 0.4 nM, 48 hours, geometric mean, given for compounds with >80% Emax, read-out: Eotaxin-3 EC50
[4] = HeLa LgBiT clone 4.14, 4-24 h; geometric mean; given for compounds with >80% Emax; read-out: STAT6 degradation DC50

Chain of STAT6 (P42226 whole entry): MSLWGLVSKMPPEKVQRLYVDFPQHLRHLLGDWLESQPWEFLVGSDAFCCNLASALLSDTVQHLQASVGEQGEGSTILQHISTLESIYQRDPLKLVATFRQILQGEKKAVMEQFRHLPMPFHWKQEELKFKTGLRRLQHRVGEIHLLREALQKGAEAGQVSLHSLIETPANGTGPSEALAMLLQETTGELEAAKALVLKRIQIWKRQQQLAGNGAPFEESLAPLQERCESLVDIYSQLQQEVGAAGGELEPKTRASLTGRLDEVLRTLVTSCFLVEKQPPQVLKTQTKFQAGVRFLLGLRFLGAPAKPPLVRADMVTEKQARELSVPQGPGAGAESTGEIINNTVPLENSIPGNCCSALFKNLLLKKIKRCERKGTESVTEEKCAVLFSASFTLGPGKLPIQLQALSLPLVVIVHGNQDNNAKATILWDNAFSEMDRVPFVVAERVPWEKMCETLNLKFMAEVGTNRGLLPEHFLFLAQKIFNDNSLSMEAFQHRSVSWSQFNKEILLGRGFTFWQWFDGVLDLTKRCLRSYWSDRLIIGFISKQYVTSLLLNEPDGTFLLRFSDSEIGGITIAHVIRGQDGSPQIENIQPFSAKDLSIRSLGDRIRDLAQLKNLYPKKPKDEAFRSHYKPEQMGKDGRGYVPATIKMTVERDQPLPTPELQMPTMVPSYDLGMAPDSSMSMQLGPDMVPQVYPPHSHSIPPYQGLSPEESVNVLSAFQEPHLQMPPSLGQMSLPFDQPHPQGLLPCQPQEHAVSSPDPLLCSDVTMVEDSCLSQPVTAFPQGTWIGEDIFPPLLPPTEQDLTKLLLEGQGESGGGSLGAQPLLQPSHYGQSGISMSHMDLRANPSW

EC50 [1, 3] [nM] | DC50 [2, 4] [nM] | SMILES | EC50 ([1]; Homo sapiens, 48 h, read-out: Eotaxin-3 EC50 (nM)) [nM] | DC50 ([2]; read-out: STAT6 degradation DC50; HeLa LgBiT clone 4.14, 4-24 h; geometric mean; given for compounds with >80% Emax) [nM]
7.5 | 1.9 | C[C@@H](c1cc2c(-c3ccc(N)nc3)ccnc2n1C)N1CCC(c2ccc(C(=O)N3CCC(CN4CCN(Cc5ccc6c(c5)n(CC5CC5)c(=O)n6C5CCC(=O)NC5=O)CC4)CC3)cc2)CC1 (stereo partly drawn) [Example 3e53, 3-(5-((4-((1-(4-(1-((S)-1-(4-(6-aminopyridin-3-yl)-1-methyl-1H-pyrrolo[2,3-b]pyridin-2-yl)ethyl)piperidin-4-yl)benzoyl)piperidin-4-yl)methyl)piperazin-1-yl)methyl)-3-(cyclopropylmethyl)-2-oxo-2,3-dihydro-1H-benzo[d]imidazol-1-yl)piperidine-2,6-dione] |  | 
3.6 | 0.7 | C[C@H]1CN(Cc2ccc3c(c2)n(CC2CC2)c(=O)n3C2CCC(=O)NC2=O)CCN1CC1CCN(C(=O)c2ccc(C3CCN([C@@H](C)c4cc5c(-c6ccc(N)nc6)ccnc5n4C)CC3)cc2)CC1 (stereo partly drawn) [Example 3e54, 3-(5-(((S)-4-((1-(4-(1-((S)-1-(4-(6-aminopyridin-3-yl)-1-methyl-1H-pyrrolo[2,3-b]pyridin-2-yl)ethyl)piperidin-4-yl)benzoyl)piperidin-4-yl)methyl)-3-methylpiperazin-1-yl)methyl)-3-(cyclo-propylmethyl)-2-oxo-2,3-dihydro-1H-benzo[d]imidazol-1-yl)piperidine-2,6-dione] |  | 
1.5 | 0.5 | C[C@H]1CN(Cc2ccc3c(c2)n(C)c(=O)n3C2CCC(=O)NC2=O)CCN1CC1CCN(C(=O)c2ccc(C3CCN([C@@H](C)c4cc5c(-c6ccc(N)nc6C#N)ccnc5n4C)CC3)cc2)CC1 (stereo partly drawn) [Example 3e55, 6-amino-3-(2-((1S)-1-(4-(4-(4-(((2S)-4-((1-(2,6-dioxopiperidin-3-yl)-3-methyl-2-oxo-2,3-dihydro-1H-benzo[d]imidazol-5-yl)methyl)-2-methylpiperazin-1-yl)methyl)piperidine-1-carbonyl)phenyl)-piperidin-1-yl)ethyl)-1-methyl-1H-pyrrolo[2,3-b]pyridin-4-yl)picolinonitrile] |  | 

More lines, now with the values behind:

SMILES | EC50 [1, 3] [nM] | DC50 [2, 4] [nM] | EC50 ([1]; Homo sapiens, 48 h, read-out: Eotaxin-3 EC50 (nM)) [nM] | DC50 ([2]; read-out: STAT6 degradation DC50; HeLa LgBiT clone 4.14, 4-24 h; geometric mean; given for compounds with >80% Emax) [nM]
C[C@H]1CN(Cc2ccc3c(c2)n(C)c(=O)n3C2CCC(=O)NC2=O)CCN1CC1(F)CCN(C(=O)c2ccc(C3CCN([C@@H](C)c4cc5c(-c6ccc(N)nc6)ccnc5n4C)CC3)cc2)CC1 (stereo partly drawn) [Example 3e45, 3-(5-(((S)-4-((1-(4-(1-((S)-1-(4-(6-aminopyridin-3-yl)-1-methyl-1H-pyrrolo[2,3-b]pyridin-2-yl)ethyl)piperidin-4-yl)benzoyl)-4-fluoropiperidin-4-yl)methyl)-3-methylpiperazin-1-yl)methyl)-3-methyl-2-oxo-2,3-dihydro-1H-benzo[d]imidazol-1-yl)piperidine-2,6-dione] | 2.1 | 0.8 |  | 
C[C@H]1CN(Cc2ccc3c(c2)n(C)c(=O)n3C2CCC(=O)NC2=O)CCN1CC1CCN(C(=O)c2ccc(C3CCN([C@@H](C)c4cc5c(-c6cnc(N)c(F)c6)ccnc5n4C)CC3)cc2)CC1 (stereo partly drawn) [Example 3e47, 3-(5-(((S)-4-((1-(4-(1-((S)-1-(4-(6-amino-5-fluoropyridin-3-yl)-1-methyl-1H-pyrrolo[2,3-b]pyridin-2-yl)ethyl)piperidin-4-yl)benzoyl)piperidin-4-yl)methyl)-3-methylpiperazin-1-yl)methyl)-3-methyl-2-oxo-2,3-dihydro-1H-benzo[d]imidazol-1-yl)piperidine-2,6-dione] | 4.9 | 2.2 |  | 
C[C@H]1CN(Cc2ccc3c(c2)n(C)c(=O)n3C2CCC(=O)NC2=O)CCN1CC1CCN(C(=O)c2ccc(C3CCN([C@@H](C)c4cc5c(-c6ccc(N)nn6)ccnc5n4C)CC3)cc2)CC1 (stereo partly drawn) [Example 3e52, 3-(5-(((S)-4-((1-(4-(1-((S)-1-(4-(6-aminopyridazin-3-yl)-1-methyl-1H-pyrrolo[2,3-b]pyridin-2-yl)ethyl)piperidin-4-yl)benzoyl)piperidin-4-yl)methyl)-3-methylpiperazin-1-yl)methyl)-3-methyl-2-oxo-2,3-dihydro-1H-benzo[d]imidazol-1-yl)piperidine-2,6-dione] |  |  | 1.5 | 0.9
